# Measurements from US20100120690A1, “Polypeptides Having Antimicrobial Activity and Polynucleotides Encoding Same” (Novozymes Adenium Biotech A/S, priority 2005, published 2010).
# Key:
# M. luteus = test: Minimal Inhibitory Concentration, NCCLS guidelines (Example 4); format: cell-based, Micrococcus luteus; settings: purified peptide
# Protocol: (§1) The Minimal Inhibitory Concentration (MIC, micrograms/mL) was determined to test for their antimicrobial activity following the NCCLS guidelines (Clinical and Laboratory Standards Institute; formerly known as National Committee for Clinical and Laboratory Standards).
# [1] = tested on: Staphylococcus aureus, ATCC 29737; test: MIC, NCCLS/CLSI guidelines (Example 5), strain C; format: cell-based; settings: average of two independent experiments
# Summary of the method: (§2)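 Expressed, purified plectasin wild-type and variant peptides were tested for minimal inhibitory concentration under NCCLS/CLSI guidelines. Values are the mean of two independent experiments, scored relative to wild-type plectasin MIC: 0 >100%, 1 80-100%, 2 50-80%, 3 <50%.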
# Staphylococcus carnosus = test: TAPS (Trans Acting Peptide System) assay, radial diffusion read-out; format: cell-based; set-up: key: classified as 4>3>2>1; whereas 4 is better than 1; classified as 4>3>2>1; classified as 4>3>2>1; wildtype activity corresponds to 1; settings: peptide expressed in E. coli
# Protocol: A range of antimicrobial polypeptides, which are variants of SEQ ID NO: 1, were tested in the TAPS assay. TAPS may be used to identify new or improved genes encoding peptides that can kill or inhibit the growth of target cells (see PCT application WO 2004/033715). The TAPS assay, an acronym for Trans Acting Peptide System, is based on having a sensitive host producing a peptide followed by screening for its activity in trans against an indicator strain. The advantage of this system is based on that the antimicrobial peptide is expressed in the Gram-negative bacterium E. coli and its antimicrobial activity can be monitored on different microbes including Gram-negatives, positives or fungi. Additionally, TAPS offers the possibility to produce correctly folded AMPs containing disulfide bonds in the host cells, thereby retaining their antimicrobial activities.
# The TAPS approach requires first, that expression of the peptide is under control of an inducible promoter with tight regulation, because the host cells are sensitive to the peptide when producing it. Secondly, the produced peptide has to be released to the media so that it can interact with the target organism.
# The TAPS screening can be carried out either in solid or liquid media. On solid media, a plasmid library is initially introduced into E. coli host cells. […] In the next step, the filter containing the colonies is transferred to LB growth medium containing inducer (0.1% arabinose) to permit peptide synthesis. Subsequently, the target strain, for example S. carnosus, is overlaid onto the plate and allowed to grow for 12-16 hours at 37° C. Finally, visual inspection of the host cells capable of reducing the proliferation of the target cells is performed and the nucleotide sequence encoding for the antimicrobial peptide is recovered from the host cells. DNA sequence analysis of the variants is obtained to elucidate the nature of the peptide.
# As mentioned above, the TAPS screening can also be performed using liquid medium. This procedure requires the use of robotics to analyze large number of clones. In this system, the host E. coli origami cells are transformed with the plasmid library and plated out on LB medium+0.2% glucose+ampicillin (200 mg/L). Independent colonies are then inoculated into 96 or 384-well plates containing 200 micro-L of TB medium+ampicillin (200 mg/L) and cultured overnight at 37° C. These cultures are then replicated robotically and grown to exponential phase until inducer (0.1% arabinose) is added to trigger peptide synthesis. The next step consists in hydrolyzing the cells such that the peptide is released to the media by hot acid hydrolysis. This treatment consists on adding 1 M sodium Phosphate buffer pH 2.3 to obtain a final pH approximately of 2.3 and incubating the cultures overnight at 80° C. Next day, a 25 micro-L aliquot of the hydrolyzed cultures is used to perform an activity test against the desired target organisms. The activity test performed was a Radial Diffusion Assay (RDA) where an aliquot of the hydrolyzed cultures was added to the agarose media inoculated with the target strain, S. carnosus. […] Measurements of the diameter of the clearing zones were performed to quantify the potency of the antimicrobial activity of the peptides.
# The antimicrobial activity (against Staphylococcus carnosus) of the tested plectasin variants, which was measured using the TAPS assay, is shown in table 3. The antimicrobial activity corresponds to the clearing zone size and has been classified as 4>3>2>1; whereas 4 is better than 1, and wildtype activity corresponds to 1.
# [2] = tested on: Staphylococcus aureus, ATCC 25923; test: MIC, NCCLS/CLSI guidelines (Example 5), strain B; format: cell-based; settings: average of two independent experiments
# Summary of the method: as §2
# [3] = tested on: Staphylococcus aureus, ATCC 29213; test: MIC, NCCLS/CLSI guidelines (Example 5), strain A; format: cell-based; settings: average of two independent experiments
# Summary of the method: as §2
# [4] = tested on: Staphylococcus aureus, MRSA ST80 (2003); test: MIC, NCCLS/CLSI guidelines (Example 5), strain E; format: cell-based; settings: average of two independent experiments
# Summary of the method: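 MICs of purified plectasin peptides are measured according to NCCLS/CLSI guidance. Each value averages duplicate independent experiments and is given as a category relative to wild-type: 0 above 100%, 1 80-100%, 2 50-80%, 3 below 50%.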
# B. subtilis = test: Minimal Inhibitory Concentration, NCCLS guidelines (Example 4); format: cell-based, Bacillus subtilis; settings: purified peptide
# Protocol: as §1
sequence,measurement,setting,value
"GFGCNGPWDEDDMQCHNHCKSIKGYKGGYCAKGGFVCKCY (listed as Pseudoplectania nigrella) [wildtype, wildtype plectasin, parent antimicrobial polypeptide, reference compound]",MIC against M. luteus,M. luteus,32 micrograms/mL
same,"MIC, strain C",[1],(4 μg/mL)
same,"Relative MIC, strain C",[1]; relative to wildtype Plectasin,1 (80-100% of Plectasin wildtype MIC)
same,"Activity (antimicrobial activity, clearing zone size)",Staphylococcus carnosus,1
same,"MIC, strain B",[2],(22 μg/mL)
same,"Relative MIC, strain B",[2]; relative to wildtype Plectasin,1 (80-100% of Plectasin wildtype MIC)
same,"MIC, strain A",[3],(8 μg/mL)
same,"Relative MIC, strain A",[3]; relative to wildtype Plectasin,1 (80-100% of Plectasin wildtype MIC)
same,"MIC, strain E",[4],(22 μg/mL)
same,"Relative MIC, strain E",[4]; relative to wildtype Plectasin,1 (80-100% of Plectasin wildtype MIC)
same,MIC against B. subtilis,B. subtilis,1 micrograms/mL
